Broadly, the IC50 is the midpoint of a concentration-inhibition curve.

For the assay, the target named is T1, Recombinant human EP300 containing the bromodomain (EP300-BD (1040-1161)) (Homo sapiens, UniProt Q09472).
T1 construct: Recombinant human EP300 bromodomain (EP300-BD (1040-1161)); made in house; host or cells: E. coli BL21-CodonPlus (DE3), modified pET vector
T1 sequence (Q09472 1040-1161): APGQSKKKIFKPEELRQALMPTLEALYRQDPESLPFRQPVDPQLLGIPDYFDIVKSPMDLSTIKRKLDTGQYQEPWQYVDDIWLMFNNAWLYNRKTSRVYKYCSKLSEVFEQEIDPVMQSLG
Put plainly: EP300 Alphascreen binding assay. Summed up:
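Displacement of a biotinylated acetyl-K56 histone H3 peptide from the N-His bromodomain construct (1040-1161) measured by AlphaScreen proximity, beads at 7.5 μg/ml final, read 60 min after addition. Protein, peptide and compound first incubated 1 h at room temperature, pH 7.5 HEPES buffer; IC50 by four-parameter logistic fit.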
In the case of `CCOc1cc(C(=O)O)cc(OCC)c1-n1cc(-c2ccc(C3CC3)nc2)c2ncc(-c3c(C)noc3C)cc21` [P-0192, 4-(3-(6-cyclopropylpyridin-3-yl)-6-(3,5-dimethylisoxazol-4-yl)-1H-pyrrolo[3,2-b]pyridin-1-yl)-3,5-diethoxybenzoic acid], the half-maximal inhibitory concentration (IC50) fell in the range of 0.0001 to 1 µM. To `CCOc1cc(C(=O)O)cc(OCC)c1-n1cc(-c2cncc(Cl)c2)c2ncc(-c3c(C)noc3C)cc21` [P-0193, 4-(3-(5-chloropyridin-3-yl)-6-(3,5-dimethylisoxazol-4-yl)-1H-pyrrolo[3,2-b]pyridin-1-yl)-3,5-diethoxybenzoic acid] belongs 0.0001 to 1 µM; to `CCOc1cc(C(=O)O)cc(OCC)c1-n1cc(-c2ccc(OC)cc2F)c2ncc(-c3c(C)noc3C)cc21` [P-0194, 4-(6-(3,5-dimethylisoxazol-4-yl)-3-(2-fluoro-4-methoxyphenyl)-1H-pyrrolo[3,2-b]pyridin-1-yl)-3,5-diethoxybenzoic acid], 0.0001 to 1 µM; to `CCOc1cc(C(=O)O)cc(OCC)c1-n1cc(-c2cnn(C)c2)c2ncc(-c3c(C)noc3C)cc21` [P-0195, 4-(6-(3,5-dimethylisoxazol-4-yl)-3-(1-methyl-1H-pyrazol-4-yl)-1H-pyrrolo[3,2-b]pyridin-1-yl)-3,5-diethoxybenzoic acid], 0.0001 to 1 µM. To `Cc1noc(C)c1-c1cnc2c(-c3ccccc3)cn(-c3ccc(C(=O)O)cc3OC(F)(F)F)c2c1` [P-0196, 4-(6-(3,5-dimethylisoxazol-4-yl)-3-phenyl-1H-pyrrolo[3,2-b]pyridin-1-yl)-3-(trifluoromethoxy)benzoic acid] belongs 0.0001 to 1 µM; to `Cc1noc(C)c1-c1cnc2c(c1)c(-c1c(Cl)cc(C(=O)O)cc1Cl)cn2[C@@H](C)c1ccccn1` [P-0197, (S)-3,5-dichloro-4-(5-(3,5-dimethylisoxazol-4-yl)-1-(1-(pyridin-2-yl)ethyl)-1H-pyrrolo[2,3-b]pyridin-3-yl)benzoic acid], 0.0001 to 1 µM; to `Cc1noc(C)c1-c1cnc2c(c1)c(-c1c(Cl)cc(C(=O)O)cc1OC(F)(F)F)cn2C(C1CC1)C1CC1` [P-0198, 3-chloro-4-(1-(dicyclopropylmethyl)-5-(3,5-dimethylisoxazol-4-yl)-1H-pyrrolo[2,3-b]pyridin-3-yl)-5-(trifluoromethoxy)benzoic acid], 0.0001 to 1 µM. As for `Cc1noc(C)c1-c1cnc2c(c1)c(-c1ccc(C(=O)O)cc1OC(F)(F)F)cn2C(CC#N)C1CC1` (centres unmarked) [P-0199, 4-(1-(2-cyano-1-cyclopropylethyl)-5-(3,5-dimethylisoxazol-4-yl)-1H-pyrrolo[2,3-b]pyridin-3-yl)-3-(trifluoromethoxy)benzoic acid], the IC50 fell in the range of 0.0001 to 1 µM.

Regarding `Cc1noc(C)c1-c1cnc2c(c1)c(-c1ccc(C(=O)O)cc1OC(F)(F)F)cn2C(CC#N)C1CCCC1` (centres unmarked) [P-0200, 4-(1-(2-cyano-1-cyclopentylethyl)-5-(3,5-dimethylisoxazol-4-yl)-1H-pyrrolo[2,3-b]pyridin-3-yl)-3-(trifluoromethoxy)benzoic acid], the IC50 lay within 0.0001 to 1 µM. To `CCOc1cc(C(=O)O)cc(OCC)c1-n1cc(-c2cnc(OC)nc2)c2ncc(-c3c(C)noc3C)cc21` [P-0201, 4-(6-(3,5-dimethylisoxazol-4-yl)-3-(2-methoxypyrimidin-5-yl)-1H-pyrrolo[3,2-b]pyridin-1-yl)-3,5-diethoxybenzoic acid] belongs 0.0001 to 1 µM; to `Cc1noc(C)c1-c1cnc2c(c1)c(-c1ccc(C(=O)O)cc1OC(F)(F)F)cn2S(=O)(=O)C1CC1` [P-0202, 4-(1-(cyclopropylsulfonyl)-5-(3,5-dimethylisoxazol-4-yl)-1H-pyrrolo[2,3-b]pyridin-3-yl)-3-(trifluoromethoxy)benzoic acid], 0.0001 to 1 µM.

Take `Cc1noc(C)c1-c1cnc2c(c1)c(-c1ccc(C(=O)O)cc1OC(F)(F)F)cn2-c1ccnc(C(C)C)c1` [P-0203, 4-(5-(3,5-dimethylisoxazol-4-yl)-1-(2-isopropylpyridin-4-yl)-1H-pyrrolo[2,3-b]pyridin-3-yl)-3-(trifluoromethoxy)benzoic acid]: the 50% inhibitory concentration (IC50) is 0.0001 to 1 µM. As for `Cc1noc(C)c1-c1cnc2c(c1)c(-c1ccc(C(=O)O)cc1OC(F)(F)F)cn2-c1cnccc1C#N` [P-0204, 4-(1-(4-cyanopyridin-3-yl)-5-(3,5-dimethylisoxazol-4-yl)-1H-pyrrolo[2,3-b]pyridin-3-yl)-3-(trifluoromethoxy)benzoic acid], the figure is 0.0001 to 1 µM; as for `CCOc1cc(C(=O)O)cc(F)c1-n1cc(-c2ccccc2)c2ncc(-c3c(C)noc3C)cc21` [P-0205, 4-(6-(3,5-dimethylisoxazol-4-yl)-3-phenyl-1H-pyrrolo[3,2-b]pyridin-1-yl)-3-ethoxy-5-fluorobenzoic acid], 0.0001 to 1 µM. With `CCOc1cccc(C#N)c1-n1cc(-c2ccccc2)c2ncc(-c3c(C)noc3C)cc21` [P-0206, 2-(6-(3,5-dimethylisoxazol-4-yl)-3-phenyl-1H-pyrrolo[3,2-b]pyridin-1-yl)-3-ethoxybenzonitrile], the IC50 was in the range of 0.0001 to 1 µM. To `Cc1noc(C)c1-c1cnc2c(-c3ccccc3)cn(-c3c(Cl)cccc3C#N)c2c1` [P-0207, 3-chloro-2-(6-(3,5-dimethylisoxazol-4-yl)-3-phenyl-1H-pyrrolo[3,2-b]pyridin-1-yl)benzonitrile] belongs 1 to 8 µM; to `CCOc1cc(C(=O)O)cc(OCC)c1-n1cc(C2=CCC(F)(F)CC2)c2ncc(-c3c(C)noc3C)cc21` [P-0208, 4-(3-(4,4-difluorocyclohex-1-en-1-yl)-6-(3,5-dimethylisoxazol-4-yl)-1H-pyrrolo[3,2-b]pyridin-1-yl)-3,5-diethoxybenzoic acid], 0.0001 to 1 µM; to `CCOc1cc(C(=O)O)cc(OCC)c1-n1cc(-c2ccc(F)c(Cl)c2)c2ncc(-c3c(C)noc3C)cc21` [P-0209, 4-(3-(3-chloro-4-fluorophenyl)-6-(3,5-dimethylisoxazol-4-yl)-1H-pyrrolo[3,2-b]pyridin-1-yl)-3,5-diethoxybenzoic acid], 0.0001 to 1 µM. As for `CCOc1cc(C(=O)O)cc(OCC)c1-n1cc(CC2CCC2)c2ncc(-c3c(COC)noc3C)cc21` [P-0210, 4-(3-(cyclobutylmethyl)-6-(3-(methoxymethyl)-5-methylisoxazol-4-yl)-1H-pyrrolo[3,2-b]pyridin-1-yl)-3,5-diethoxybenzoic acid], the figure is 0.0001 to 1 µM; as for `Cc1cnccc1-n1cc(-c2ccc(C(=O)O)cc2OC(F)(F)F)c2cc(-c3c(C)noc3C)cnc21` [P-0211, 4-(5-(3,5-dimethylisoxazol-4-yl)-1-(3-methylpyridin-4-yl)-1H-pyrrolo[2,3-b]pyridin-3-yl)-3-(trifluoromethoxy)benzoic acid], 0.0001 to 1 µM. As for `Cc1noc(C)c1-c1cnc2c(c1)c(-c1ccc(C(=O)O)cc1OC(F)(F)F)cn2C1CCS(=O)(=O)CC1` [P-0212, 4-(5-(3,5-dimethylisoxazol-4-yl)-1-(1,1-dioxidotetrahydro-2H-thiopyran-4-yl)-1H-pyrrolo[2,3-b]pyridin-3-yl)-3-(trifluoromethoxy)benzoic acid], the figure is 0.0001 to 1 µM. For `Cc1noc(C)c1-c1cnc2c(c1)c(-c1ccc(C(=O)O)cc1OC(C)C)cn2C(C1CC1)C1CC1` [P-0213, 4-(1-(dicyclopropylmethyl)-5-(3,5-dimethylisoxazol-4-yl)-1H-pyrrolo[2,3-b]pyridin-3-yl)-3-isopropoxybenzoic acid], the half-maximal inhibitory concentration (IC50) fell in the range of 0.0001 to 1 µM. To `Cc1noc(C)c1-c1cnc2c(c1)c(-c1ccc(C(=O)O)cc1OCC(F)(F)F)cn2C(C1CC1)C1CC1` [P-0214, 4-(1-(dicyclopropylmethyl)-5-(3,5-dimethylisoxazol-4-yl)-1H-pyrrolo[2,3-b]pyridin-3-yl)-3-(2,2,2-trifluoroethoxy)benzoic acid] belongs 0.0001 to 1 µM; to `Cc1noc(C)c1-c1cnc2c(c1)c(-c1ccc(C(=O)O)cc1OC(F)(F)F)cn2-c1ncccc1C#N` [P-0215, 4-(1-(3-cyanopyridin-2-yl)-5-(3,5-dimethylisoxazol-4-yl)-1H-pyrrolo[2,3-b]pyridin-3-yl)-3-(trifluoromethoxy)benzoic acid], 0.0001 to 1 µM.

Regarding `Cc1noc(C)c1-c1cnc2c(c1)c(-c1ccc(C(=O)O)cc1OC(F)(F)F)cn2-c1ncccc1C#CC1CC1` [P-0216, 4-(1-(3-(cyclopropylethynyl)pyridin-2-yl)-5-(3,5-dimethylisoxazol-4-yl)-1H-pyrrolo[2,3-b]pyridin-3-yl)-3-(trifluoromethoxy)benzoic acid], the half-maximal inhibitory concentration (IC50) lay in the range of 0.0001 to 1 µM. As for `CCOc1cc(C(=O)O)cc(OCC)c1-n1cc(-c2ccc(C#N)cc2F)c2ncc(-c3c(C)noc3C)cc21` [P-0217, 4-(3-(4-cyano-2-fluorophenyl)-6-(3,5-dimethylisoxazol-4-yl)-1H-pyrrolo[3,2-b]pyridin-1-yl)-3,5-diethoxybenzoic acid], the figure is 0.0001 to 1 µM; as for `CCOc1cc(C(=O)O)cc(OCC)c1-n1cc(-c2ccc(C(=O)NC3CC3)cc2)c2ncc(-c3c(C)noc3C)cc21` [P-0218, 4-(3-(4-(cyclopropylcarbamoyl)phenyl)-6-(3,5-dimethylisoxazol-4-yl)-1H-pyrrolo[3,2-b]pyridin-1-yl)-3,5-diethoxybenzoic acid], 0.0001 to 1 µM; as for `COC(=O)c1cc(OC)c(-n2cc(-c3ccccc3)c3ncc(-c4c(C)noc4C)cc32)c(OC)c1` [P-0219, methyl 4-(6-(3,5-dimethylisoxazol-4-yl)-3-phenyl-1H-pyrrolo[3,2-b]pyridin-1-yl)-3,5-dimethoxybenzoate], 0.0001 to 1 µM. On to `COc1cc(C(=O)O)cc(OC)c1-n1cc(-c2ccccc2)c2ncc(-c3c(C)noc3C)cc21` [P-0220, 4-(6-(3,5-dimethylisoxazol-4-yl)-3-phenyl-1H-pyrrolo[3,2-b]pyridin-1-yl)-3,5-dimethoxybenzoic acid], for which the concentration for half-maximal inhibition (IC50) fell in the range of 0.0001 to 1 µM.

Values taken from patent US11446287B2, “Compounds and methods for EP300 or CBP modulation and indications therefor” (Opna Immuno-Oncology SA, priority 2019, dated 2022).
